Tests used:
rat [1] = settings: Subchronic oral toxicity in rodents, fischer, Feed, dose end: 13 week, group: systemic, systemic / clinical chemistry / alanine aminotransferase (alt/sgpt) / alanine aminotransferase (alt/sgpt) + systemic / clinical chemistry / …
rat [2] = settings: Prenatal developmental toxicity study, sprague dawley, Oral, Gavage/Intubation, dose end: 15 GD, group: maternal
rat [3] = settings: Subchronic oral toxicity in rodents, sprague dawley, Gavage/Intubation, dose end: 30 day, group: systemic, systemic / in life observation / clinical signs / soft stools + systemic / in life observation / clinical signs / urine, discoloration
mouse [4] = settings: Prenatal developmental toxicity study, cd1, Oral, Gavage/Intubation, dose end: 15 GD
rat [5] = settings: Prenatal developmental toxicity study, sprague dawley, Oral, Gavage/Intubation, dose end: 15 GD
mouse [6] = settings: Subchronic oral toxicity in rodents, b6c3f1, Gavage/Intubation, dose end: 14 week, group: systemic
mouse [7] = settings: Carcinogenicity; b6c3f1; Oral; Gavage/Intubation; dose end: 2 year; group: systemic; systemic / pathology microscopic / bone marrow / hyperplasia + systemic / pathology microscopic / liver / hypertrophy + systemic / pathology…
rat [8] = settings: Subchronic oral toxicity in rodents, fischer, Gavage/Intubation, dose end: 14 week
rat [9] = settings: Carcinogenicity; fischer; Oral; Gavage/Intubation; dose end: 2 year; group: systemic; systemic / pathology microscopic / kidney / nephropathy + systemic / pathology microscopic / liver / clear cell focus + systemic / pathology…
dog [10] = settings: Chronic toxicity; beagle; Oral; Feed; dose end: 12 month; group: systemic; systemic / in life observation / body weight / body weight gain + systemic / in life observation / food consumption / food consumption + …
mouse [11] = settings: Carcinogenicity; other; Oral; Feed; dose end: 18 month; group: systemic; systemic / in life observation / body weight / body weight + systemic / in life observation / body weight / body weight gain + systemic / in…
rat [12] = settings: Subchronic oral toxicity in rodents, other, Feed, dose end: 3 month, group: systemic
dog [13] = settings: Subchronic oral toxicity in nonrodent, beagle, Feed, dose end: 13 week, group: systemic, systemic / pathology microscopic / liver / infiltration cellular + systemic / pathology microscopic / liver / necrosis + systemic / …
rat [14] = settings: Prenatal developmental toxicity study, other, Oral, Gavage/Intubation, dose end: 15 GD
rabbit [15] = settings: Prenatal developmental toxicity study, chinchilla, Oral, Gavage/Intubation, dose end: 19 GD
rat [16] = settings: Multigenerational reproductive toxicity study, sprague dawley, Oral, Gavage/Intubation, dose end: 1 generation, group: parental
dog [17] = settings: Chronic toxicity; beagle; Oral; Feed; dose end: 52 week; group: systemic; systemic / in life observation / body weight / body weight + systemic / in life observation / food consumption / food consumption + systemic…
rat [18] = settings: Chronic toxicity, fischer, Oral, [Not Specified], dose end: 24 month, group: systemic
rat [19] = settings: Subchronic oral toxicity in rodents, Feed, dose end: 13 week, group: systemic, systemic / clinical chemistry / aspartate aminotransferase (ast/sgot) / aspartate aminotransferase (ast/sgot) + systemic / clinical …
rabbit [20] = settings: Prenatal developmental toxicity study; new zealand white; Oral; Gavage/Intubation; dose end: 18 GD; group: maternal; systemic / in life observation / body weight / body weight gain + systemic / in life observation / clinical signs / [other] + systemic / in …
rat [21] = settings: Multigenerational reproductive toxicity study, sprague dawley, Oral, Gavage/Intubation, dose end: 1 generation
primate = settings: Subchronic oral toxicity in nonrodent, macaque, Gavage/Intubation, dose end: 90 day, group: systemic, systemic / in life observation / clinical signs / defecation (diarrhea) + systemic / in life observation / clinical signs / emesis
[22] = systemic / in life observation / clinical signs / salivation + systemic / in life observation / clinical signs / soft stools + systemic / in…
[23] = group: developmental, systemic / in life observation / body weight / fetal weight
[24] = group: maternal, systemic / in life observation / mortality / mortality
[25] = group: maternal, systemic / in life observation / mortality / mortality + systemic / organ weight / liver / absolute + systemic / organ weight / uterus / nos
[26] = group: maternal, systemic / in life observation / body weight / body weight gain + systemic / in life observation / clinical signs / fur (altered appearance…
[27] = systemic / hematology / heinz body / heinz body + systemic / hematology / methemoglobin / methemoglobin + systemic / in life observation / …
[28] = systemic / organ weight / liver / absolute + systemic / organ weight / liver / relative to body weight + systemic / pathology microscopic / …
[29] = group: maternal, reproductive / reproductive performance / estrous cycle / abnormal
[30] = group: systemic, systemic / clinical chemistry / alanine aminotransferase (alt/sgpt) / alanine aminotransferase (alt/sgpt) + systemic / clinical chemistry / …
[31] = systemic / pathology microscopic / urinary bladder / hyperplasia + systemic / clinical chemistry / bilirubin / total bilirubin
[32] = systemic / pathology microscopic / urinary bladder / hyperplasia + systemic / pathology microscopic / kidney / atrophy + systemic / …
[33] = group: developmental, developmental / developmental malformation / bone / bipartite ossification + developmental / developmental malformation / bone / dumbbell …
[34] = group: maternal, systemic / in life observation / body weight / body weight gain + systemic / in life observation / clinical signs / odorous urine + systemic…
[35] = group: developmental, developmental / developmental malformation / bone / unossified
[36] = group: maternal, systemic / in life observation / mortality / mortality + systemic / in life observation / clinical signs / reduced motor activity + systemic…
[37] = systemic / clinical chemistry / albumin / albumin + systemic / clinical chemistry / albumin-globulin ratio / albumin-globulin ratio + …
[38] = systemic / clinical chemistry / cholesterol / cholesterol
[39] = systemic / pathology microscopic / testes / atrophy
[40] = group: offspring, systemic / in life observation / body weight / offspring (pup) weight
[41] = group: parental, systemic / in life observation / clinical signs / [other]
[42] = group: parental, systemic / in life observation / clinical signs / [other] + systemic / in life observation / body weight / body weight gain + systemic / in …

In the case of `CC(C)CCCCCOC(=O)c1nc(Cl)c(Cl)c(N)c1Cl` [Picloram-isoctyl], the LEL (rat [1]) is reported as 220 mg/kg/day, the LOAEL (rat [1]) is reported as 220 mg/kg/day and the NEL (rat [1]) is reported as 73 mg/kg/day. For the same molecule, the NOAEL (rat [1]) was 73 mg/kg/day.

With `O=C(O)c1c(Cl)c(Cl)c(C(=O)O)c(Cl)c1Cl` [Chlorthal] the LOAEL (rat [2]; systemic / in life observation / clinical signs / salivation + systemic / in life observation / clinical signs / soft stools) was 2500 mg/kg/day, the LEL (rat [2]; [22]) was 2500 mg/kg/day and the NEL (rat [2]; [22]) was 1250 mg/kg/day. For the same molecule, the NOAEL (rat [2]; [22]) was 1250 mg/kg/day, the LEL (rat [3]) was 2000 mg/kg/day and the LOAEL (rat [3]) was 2000 mg/kg/day. It also gave an NEL (rat [3]) of 500 mg/kg/day and an NOAEL (rat [3]) of 500 mg/kg/day.

In the case of `CN(C)[C@@H]1C(=O)C(C(N)=O)=C(O)[C@@]2(O)C(=O)C3=C(O)c4c(O)cccc4[C@@](C)(O)[C@H]3[C@H](O)[C@@H]12` [Oxytetracycline], the LEL (mouse [4]; [23]) is reported as 2100 mg/kg/day, the LOAEL (mouse [4]; [23]) is reported as greater than 2100 mg/kg/day and the NEL (mouse [4]; [23]) is reported as 1670 mg/kg/day. The NOAEL (mouse [4]; [23]) was no less than 2100 mg/kg/day, the LEL (mouse [4]; [24]) was 1320 mg/kg/day and the NEL (mouse [4]; [24]) was less than 1320 mg/kg/day. For the same molecule, the LOAEL (mouse [4]; [25]) was greater than 2100 mg/kg/day, the NOAEL (mouse [4]; [25]) was no less than 2100 mg/kg/day and the LEL (rat [5]; [23]) was 1200 mg/kg/day. The LOAEL (rat [5]; [23]) was greater than 1500 mg/kg/day, the NEL (rat [5]; [23]) was less than 1200 mg/kg/day and the NOAEL (rat [5]; [23]) was no less than 1500 mg/kg/day. The LEL (rat [5]; [26]) was 1200 mg/kg/day, the LOAEL (rat [5]; [26]) was greater than 1500 mg/kg/day and the NEL (rat [5]; [26]) was less than 1200 mg/kg/day. For the same molecule, the NOAEL (rat [5]; [26]) was no less than 1500 mg/kg/day.

With `Cc1ccc(N(C)C)cc1` [N,N,4-Trimethylaniline] the LOAEL (mouse [6]; [27]) was greater than 250 mg/kg/day, the NOAEL (mouse [6]; [27]) was no less than 250 mg/kg/day and the LEL (mouse [6]; [28]) was 15 mg/kg/day. It also gave an NEL (mouse [6]; [28]) of less than 15 mg/kg/day, an LEL (mouse [7]) of 6 mg/kg/day and an LOAEL (mouse [7]) of 6 mg/kg/day. It also gave an NEL (mouse [7]) of less than 6 mg/kg/day, an NOAEL (mouse [7]) of less than 6 mg/kg/day and an LEL (rat [8]; [29]) of 125 mg/kg/day. It also gave an LOAEL (rat [8]; [29]) greater than 1000 mg/kg/day, an NEL (rat [8]; [29]) of 62.5 mg/kg/day and an NOAEL (rat [8]; [29]) of no less than 1000 mg/kg/day. It also gave an LEL (rat [8]; [30]) of 62.5 mg/kg/day, an LOAEL (rat [8]; [30]) greater than 1000 mg/kg/day and an NEL (rat [8]; [30]) of less than 62.5 mg/kg/day. The NOAEL (rat [8]; [30]) was no less than 1000 mg/kg/day, the LEL (rat [9]) was 6 mg/kg/day and the LOAEL (rat [9]) was greater than 60 mg/kg/day. For the same molecule, the NEL (rat [9]) was less than 6 mg/kg/day and the NOAEL (rat [9]) was no less than 60 mg/kg/day.

For `CCCCCC(C)OC(=O)COc1ccc(Cl)c2cccnc12` (configuration not stated) [Cloquintocet-mexyl], the LEL (dog [10]) was 196 mg/kg/day, the LOAEL (dog [10]) was 196 mg/kg/day and the NEL (dog [10]) was 43 mg/kg/day. For the same molecule, the NOAEL (dog [10]) was 43 mg/kg/day, the LEL (mouse [11]) was 520 mg/kg/day and the LOAEL (mouse [11]) was 520 mg/kg/day. The NEL (mouse [11]) was 102 mg/kg/day, the NOAEL (mouse [11]) was 102 mg/kg/day and the LEL (rat [12]; [31]) was 63.9 mg/kg/day. The LOAEL (rat [12]; [31]) was 63.9 mg/kg/day, the NEL (rat [12]; [32]) was 9.66 mg/kg/day and the NOAEL (rat [12]; [32]) was 9.66 mg/kg/day. The LEL (dog [13]) was 30.2 mg/kg/day, the LOAEL (dog [13]) was 30.2 mg/kg/day and the NEL (dog [13]) was 3.3 mg/kg/day. The NOAEL (dog [13]) was 3.3 mg/kg/day, the LEL (rat [14]; [33]) was 400 mg/kg/day and the LOAEL (rat [14]; [33]) was 400 mg/kg/day. The NEL (rat [14]; [33]) was 100 mg/kg/day, the NOAEL (rat [14]; [33]) was 100 mg/kg/day and the LEL (rat [14]; [34]) was 400 mg/kg/day. The LOAEL (rat [14]; [34]) was 400 mg/kg/day, the NEL (rat [14]; [34]) was 100 mg/kg/day and the NOAEL (rat [14]; [34]) was 100 mg/kg/day. It also gave an LEL (rabbit [15]; [35]) of 60 mg/kg/day, an LOAEL (rabbit [15]; [35]) greater than 300 mg/kg/day and an NEL (rabbit [15]; [35]) of 10 mg/kg/day. It also gave an NOAEL (rabbit [15]; [35]) of no less than 300 mg/kg/day, an LOAEL (rabbit [15]; [24]) of 300 mg/kg/day and an LEL (rabbit [15]; [36]) of 300 mg/kg/day. For the same molecule, the NEL (rabbit [15]; [36]) was 60 mg/kg/day and the NOAEL (rabbit [15]; [36]) was 60 mg/kg/day.

Molecule `O=S(=O)([O-])C(F)(F)C(F)(F)C(F)(F)C(F)(F)C(F)(F)C(F)(F)F.[K+]` [PFHS-K] has an LOAEL (rat [16]; [37]) greater than 10 mg/kg/day, an NOAEL (rat [16]; [37]) of no less than 10 mg/kg/day and an LEL (rat [16]; [38]) of 0.3 mg/kg/day. For the same molecule, the NEL (rat [16]; [38]) was less than 0.3 mg/kg/day.

`Cc1ccccc1CO[C@@H]1C[C@@]2(C(C)C)CC[C@]1(C)O2` [Cinmethylin] gave an LEL (dog [17]) of 75 mg/kg/day, an LOAEL (dog [17]) of 75 mg/kg/day and an NEL (dog [17]) of 7.5 mg/kg/day. For the same molecule, the NOAEL (dog [17]) was 7.5 mg/kg/day, the LOAEL (rat [18]; systemic / pathology microscopic / kidney / nephropathy) was 150 mg/kg/day and the NOAEL (rat [18]; systemic / pathology microscopic / kidney / nephropathy + systemic / organ weight / liver / relative to body weight + systemic / organ …) was 5 mg/kg/day. For the same molecule, the LEL (rat [18]; [39]) was 1.5 mg/kg/day, the NEL (rat [18]; [39]) was less than 1.5 mg/kg/day and the LEL (rat [19]) was 1.5 mg/kg/day. For the same molecule, the LOAEL (rat [19]) was greater than 50 mg/kg/day, the NEL (rat [19]) was less than 1.5 mg/kg/day and the NOAEL (rat [19]) was no less than 50 mg/kg/day.

Work on `COc1ccc2c(c[n+](C)c3c4cc5c(cc4ccc23)OCO5)c1OC.C[n+]1cc2c3c(ccc2c2ccc4cc5c(cc4c21)OCO5)OCO3.[Cl-].[Cl-]` [Chelerythrine chloride mixture with sanguinarine chloride] yielded an LEL (rabbit [20]) of 25 mg/kg/day, an LOAEL (rabbit [20]) of 25 mg/kg/day and an NEL (rabbit [20]) of 15 mg/kg/day. It also gave an NOAEL (rabbit [20]) of 15 mg/kg/day, an LEL (rat [21]; [40]) of 100 mg/kg/day and an LOAEL (rat [21]; [40]) of 100 mg/kg/day. It also gave an NEL (rat [21]; [40]) of 30 mg/kg/day, an NOAEL (rat [21]; [40]) of 30 mg/kg/day and an LEL (rat [21]; [41]) of 30 mg/kg/day. For the same molecule, the LOAEL (rat [21]; [41]) was 30 mg/kg/day, the NEL (rat [21]; [42]) was 10 mg/kg/day and the NOAEL (rat [21]; [42]) was 10 mg/kg/day. It also gave an LEL (primate) of 10 mg/kg/day, an LOAEL (primate) of 10 mg/kg/day and an NEL (primate) of less than 10 mg/kg/day. For the same molecule, the NOAEL (primate) was less than 10 mg/kg/day.

Reference: EPA's ToxRefDB 2
